# According to patent US20080299538A1, “Pathogen Inactivation of Whole Blood” (CARIDIANBCT BIOTECHNOLOGIES, LLC, priority 2003, published 2008):
# How the values were obtained:
# white blood cells (WBCs) [1] = assay: Cytokine production in response to LPS (Cytometric Bead Assay); settings: LPS, inflammatory cytokines
# white blood cells (WBCs) [2] = assay: WBC proliferation in response to anti-CD3/CD28 (thymidine incorporation); settings: for % inhibition of proliferation: CD3/28
# white blood cells (WBCs) [3] = assay: Cytokine production in response to anti-CD3/CD28 (Cytometric Bead Assay)
# [4] = anti-CD3/28, 33 J/mlRBC and above, compared to untreated cells
# [5] = anti-CD3/28, TH1/TH2 cytokines, 22 J/mlRBC
# [6] = anti-CD3/28, TH1/TH2 cytokines, 33 J/mlRBC
# [7] = anti-CD3/28, TH1/TH2 cytokines, 44 J/mlRBC
# [8] = anti-CD3/28, inflammatory cytokines, 22 J/mlRBC
# [9] = anti-CD3/28, inflammatory cytokines, 33 J/mlRBC
# [10] = anti-CD3/28, inflammatory cytokines, 44 J/mlRBC
smiles,measurement,setting,value
"Cc1cc2nc3c(=O)[nH]c(=O)nc-3n(C[C@H](O)[C@H](O)[C@H](O)CO)c2cc1C [riboflavin, 7,8-dimethyl-10-ribityl isoalloxazine]",% inhibition of IL-1β production,white blood cells (WBCs) [1]; 22 J/mlRBC,68 ± 19%
same,% inhibition of IL-6 production,white blood cells (WBCs) [1]; 22 J/mlRBC,84 ± 8%
same,% inhibition of IL-8 production,white blood cells (WBCs) [1]; 22 J/mlRBC,85 ± 8%
same,% inhibition of IL-10 production,white blood cells (WBCs) [1]; 22 J/mlRBC,63 ± 21%
same,% inhibition of TNFα production,white blood cells (WBCs) [1]; 22 J/mlRBC,54 ± 35%
same,% inhibition of IL-1β production,white blood cells (WBCs) [1]; 33 J/mlRBC,91 ± 8%
same,% inhibition of IL-6 production,white blood cells (WBCs) [1]; 33 J/mlRBC,96 ± 3%
same,% inhibition of IL-8 production,white blood cells (WBCs) [1]; 33 J/mlRBC,96 ± 4%
same,% inhibition of IL-10 production,white blood cells (WBCs) [1]; 33 J/mlRBC,94 ± 5%
same,% inhibition of TNFα production,white blood cells (WBCs) [1]; 33 J/mlRBC,92 ± 8%
same,% inhibition of IL-1β production,white blood cells (WBCs) [1]; 44 J/mlRBC,98 ± 3%
same,% inhibition of IL-6 production,white blood cells (WBCs) [1]; 44 J/mlRBC,99 ± 1%
same,% inhibition of IL-8 production,white blood cells (WBCs) [1]; 44 J/mlRBC,99 ± 1%
same,% inhibition of IL-10 production,white blood cells (WBCs) [1]; 44 J/mlRBC,99 ± 1%
same,% inhibition of TNFα production,white blood cells (WBCs) [1]; 44 J/mlRBC,98 ± 2%
same,% inhibition of proliferation,white blood cells (WBCs) [2]; 22 J/mlRBC,93 ± 2%
same,% inhibition of proliferation,white blood cells (WBCs) [2]; 33 J/mlRBC,99 ± 0%
same,% inhibition of proliferation,white blood cells (WBCs) [2]; 44 J/mlRBC,99 ± 0%
same,induced proliferation of treated WBCs,"white blood cells (WBCs) [2]; plate-bound anti-CD3 plus anti-CD28 antibodies, 33 J/mlRBC and above, 3 days of incubation",no detectable induced proliferation
same,inflammatory cytokine production in response to anti-CD3/28 antibodies,white blood cells (WBCs) [3],significantly reduced
same,TH1/TH2 cytokine production induced by anti-CD3/28 stimulation,white blood cells (WBCs) [3]; all energies tested,significantly reduced
same,cytokine production in response to anti-CD3/anti-CD28 antibodies blocked,"white blood cells (WBCs) [3]; all energies tested, with the exception of IL-4 and IL-8 at 22 J/mlRBC",> 90%
same,inhibition of IFN-γ production,white blood cells (WBCs) [3]; [4],> 90%
same,inhibition of IL-2 production,white blood cells (WBCs) [3]; [4],> 90%
same,inhibition of TNF-α production,white blood cells (WBCs) [3]; [4],> 90%
same,% inhibition of IFN-γ production,white blood cells (WBCs) [3]; [5],99 ± 1%
same,% inhibition of IL-2 production,white blood cells (WBCs) [3]; [5],91 ± 7%
same,% inhibition of IL-4 production,white blood cells (WBCs) [3]; [5],84%
same,% inhibition of IL-5 production,white blood cells (WBCs) [3]; [5],94 ± 3%
same,% inhibition of IL-10 production,white blood cells (WBCs) [3]; [5],99 ± 1%
same,% inhibition of TNFα production,white blood cells (WBCs) [3]; [5],92 ± 15%
same,% inhibition of IFN-γ production,white blood cells (WBCs) [3]; [6],100 ± 0%
same,% inhibition of IL-2 production,white blood cells (WBCs) [3]; [6],99 ± 1%
same,% inhibition of IL-4 production,white blood cells (WBCs) [3]; [6],95 ± 3%
same,% inhibition of IL-5 production,white blood cells (WBCs) [3]; [6],99 ± 1%
same,% inhibition of IL-10 production,white blood cells (WBCs) [3]; [6],100 ± 0%
same,% inhibition of TNFα production,white blood cells (WBCs) [3]; [6],99 ± 1%
same,% inhibition of IFN-γ production,white blood cells (WBCs) [3]; [7],100 ± 0%
same,% inhibition of IL-2 production,white blood cells (WBCs) [3]; [7],100 ± 0%
same,% inhibition of IL-4 production,white blood cells (WBCs) [3]; [7],97 ± 2%
same,% inhibition of IL-5 production,white blood cells (WBCs) [3]; [7],99 ± 1%
same,% inhibition of IL-10 production,white blood cells (WBCs) [3]; [7],100 ± 0%
same,% inhibition of TNFα production,white blood cells (WBCs) [3]; [7],100 ± 0%
same,% inhibition of IL-1β production,white blood cells (WBCs) [3]; [8],98 ± 2%
same,% inhibition of IL-6 production,white blood cells (WBCs) [3]; [8],99 ± 2%
same,% inhibition of IL-8 production,white blood cells (WBCs) [3]; [8],89%
same,% inhibition of IL-10 production,white blood cells (WBCs) [3]; [8],99 ± 1%
same,% inhibition of IL-12 p70 production,white blood cells (WBCs) [3]; [8],98 ± 4%
same,% inhibition of TNFα production,white blood cells (WBCs) [3]; [8],90 ± 12%
same,% inhibition of IL-1β production,white blood cells (WBCs) [3]; [9],100 ± 0%
same,% inhibition of IL-6 production,white blood cells (WBCs) [3]; [9],100 ± 0%
same,% inhibition of IL-8 production,white blood cells (WBCs) [3]; [9],98 ± 2%
same,% inhibition of IL-10 production,white blood cells (WBCs) [3]; [9],100 ± 0%
same,% inhibition of IL-12 p70 production,white blood cells (WBCs) [3]; [9],99 ± 2%
same,% inhibition of TNFα production,white blood cells (WBCs) [3]; [9],100 ± 0%
same,% inhibition of IL-1β production,white blood cells (WBCs) [3]; [10],100 ± 0%
same,% inhibition of IL-6 production,white blood cells (WBCs) [3]; [10],100 ± 0%
same,% inhibition of IL-8 production,white blood cells (WBCs) [3]; [10],100 ± 0%
same,% inhibition of IL-10 production,white blood cells (WBCs) [3]; [10],100 ± 0%
same,% inhibition of IL-12 p70 production,white blood cells (WBCs) [3]; [10],97 ± 4%
same,% inhibition of TNFα production,white blood cells (WBCs) [3]; [10],100 ± 0%
